The numbers were not newly measured in patent publication US10633688B2, “Systems and methods for predicting response to minoxidil for the treatment of androgenetic alopecia” (Follea International, priority 2010, dated 2020), which cites them from elsewhere.

For series [1], the system named is female androgenetic alopecia. Particulars: females.
For another series, the target named is T1, SULT1A1 (Homo sapiens, UniProt P50225).
T1 construct: Plucked hairs were collected from the border between bald and non-bald scalp and inspected visually for an intact bulb; from tissue; host or cells: plucked anagen scalp hair (hair bulb / follicle) of AGA patients
T1 sequence (P50225 whole entry): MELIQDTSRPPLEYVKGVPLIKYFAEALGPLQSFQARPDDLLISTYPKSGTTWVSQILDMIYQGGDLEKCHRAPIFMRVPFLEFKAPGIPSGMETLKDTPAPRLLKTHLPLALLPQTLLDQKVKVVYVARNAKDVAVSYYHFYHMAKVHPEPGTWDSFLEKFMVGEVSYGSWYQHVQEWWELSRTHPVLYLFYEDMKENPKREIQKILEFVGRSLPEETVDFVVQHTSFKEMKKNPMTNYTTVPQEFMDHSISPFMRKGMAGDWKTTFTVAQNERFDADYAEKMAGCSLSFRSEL

`CC(C)(C)NC(=O)[C@H]1CC[C@H]2[C@@H]3CC[C@H]4NC(=O)C=C[C@]4(C)[C@H]3CC[C@]12C` [finasteride]: the “effectiveness in the treatment of female androgenetic alopecia” value in series [1] is reported as “failed to show the effectiveness”. In the case of `O=C(O)c1ccccc1O` [salicylic acid], the “effect on SULT1A1 sulfation of minoxidil” value on SULT1A1 is reported as “lower SULT1A1 sulfation of minoxidil by competitive inhibition”.
